Assay results reported in publication PMC8145107 (Pharmaceutics, 2021).
Values joined by “and” are separate entries in the source; they are usually repeats but may differ in a detail not shown here. Equal values may be shown once. Read-outs that look alike come from different tables or passages of the source.

Tests used:
[1] = test system: CHO-K1: Chinese hamster ovary cell line; assay: Cytotoxicity in normal mammalian cells (CHO-K1); format: cell-based; conditions: Cricetulus griseus; CHO-K1, 24 h, 0.01-100 μM; read-out: IC50 of compounds in various normal mammalian cells
[2] = test system: Salmonella typhimurium TA100; conditions: for Ames test outcome versus vehicle control: TA100, 48 h, J2 40 μg/plate, NA49 200 μg/plate
Procedure: (§1) To perform the Ames test of J2 and NA49, the number of revertant colonies was counted on each compound-treated plate at the maximum concentration at which the compound was soluble and nontoxic to the S. typhimurium tester strains (Supplementary Material S1). The ratio of the number of revertant colonies in the treated plate to colonies in the vehicle plate. […] For the hERG K^+ channel binding assay of J2 and NA49, the inhibitory activity against the hERG K^+ channel and its ligand was measured using a red fluorescent hERG channel ligand tracer. The final activity was assessed as a decrease in the degree of fluorescence polarization. […]
(§2) The test was conducted with maximum concentration at which the compound was
(§3) soluble and nontoxic to the S. typhimurium tester strains. #Factor = No. of revertant colonies
(§4) of treated plate colonies of vehicle control plate. […]

[3] = test system: Salmonella typhimurium TA98; conditions: for Ames test outcome versus vehicle control: TA98, 48 h, J2 40 μg/plate, NA49 200 μg/plate
Procedure: as §1, §2, §3, §4

[4] = Kinetic solubility by nephelometry; format: physicochemical; conditions: aqueous buffer, kinetic from dmso stock; pH 7, nephelometry
Procedure: (§5) Permeability was evaluated with a parallel artificial membrane permeability (PAMPA) assay using an artificially generated lipid-infused membrane.

[5] = Log P by pH-metric method; format: physicochemical
PAMPA permeability assay = format: in vitro ADME; conditions: for Papp: read-out: Cell Permeability Log Papp (converted)
Procedure: as §5

[6] = In vitro human plasma stability; format: in vitro ADME; conditions: for Half-life predicted from in vitro plasma stability: human plasma
Procedure: as §5

CYP2C9 = CYP2C9 (Homo sapiens, UniProt P11712); assay: CYP450 enzyme inhibition, 2C9; format: in vitro ADME; conditions: compound 0.05~50 μM; read-out: IC50 against CYP450 isotype 2C9
Procedure: as §5

CYP450 2D6 = CYP450 2D6 (Homo sapiens, UniProt P10635); assay: CYP450 enzyme inhibition, 2D6; format: in vitro ADME; conditions: compound 0.05~50 μM; read-out: IC50 against CYP450 isotype 2D6
[7] = test system: HSP27 recombinant protein; assay: HSP27 cross-linking with recombinant protein (Western blot); format: biochemical; conditions: 10 μM, 3 h
Procedure: For polyacrylamide gel electrophoresis (PAGE) and Western blot (WB) analysis, cells were lysed with radioimmunoprecipitation assay (RIPA) buffer (50 mM Tris-HCl [pH 7.5], 150 mM NaCl, 1% NP-40, 0.1% sodium dodecyl sulfate (SDS), and 1% sodium deoxycholate) supplemented with 1 mM Na3VO4, 1 mM dithiothreitol (DTT), 1 mM phenyl-methyl-sulfonyl fluoride (PMSF), and protease inhibitor cocktail (Calbiochem). The samples were boiled for 5 min, and equal amounts of protein were analyzed by SDS-PAGE. […]
Figure S3. […] (A) HSP25 WT protein was pretreated with NAC (N-acetyl-L-cysteine) at 20 mM for 30 min and then treated with J2 or NA49 at 10 μM. After 3 h, the dimerization of proteins was altered. ( B) NCI-H460 cells were tr eated with J2 or NA49 (0, 1, 5, 10 and 20 μM) for 24 h, and cell lysates were detected by Western blot analysis. […]

[8] = Stability tests of the analytes (HPLC method validation, rat plasma); format: physicochemical; conditions: for Stability of standard stock solution: 1 mg/mL
Procedure: pounds. The analytical method of the analytes was validated by FDA Bioanalytical Method Validation Guidance for Industry. The chromatogram of the rat plasma spiked with J2 and SW15 (IS) or NA49 and NA27 was compared with that of the blank rat plasma in order to confirm the specificity of the analytical method. The calibration curves of J2 and NA49 in rat plasma was built for nine concentration levels in the range of 0.025–10 µg/mL. The sensitivity of detection was evaluated by the lower limit of quantification […]
than the baseline noise. The intra-day precision and accuracy were estimated by analyzing five sets of four quality control (QC) samples (0.025, 0.05, 0.5 and 5 µg/mL) in the same day. The inter-day precision and accuracy were evaluated by analyzing a set of four QC samples on five different days. The precision was expressed as a coefficient of variation (CV%) by calculating the ratio of the standard deviation to the mean measured drug con-centration. The accuracy (%) was calculated by dividing a mean measured drug concen-tration by the theoretical drug concentration. The recovery of the analytes from the plasma samples was evaluated at low and high concentrations (0.05 and 5 µg/mL, respectively) by comparing the peak areas of the analytes after extraction to those before extraction. […]
The short-term stability tests were conducted at room temperature for 4 h for J2 and 6 h for […], while the long-term stability tests were performed at −20°C and −70°C for 2 weeks and 4 weeks, respectively. The stability of the analytes following three freeze-thaw cycles, the post-preparative stability and the stock solution stability were also exam-ined. Each blood sample collected from the experimental animals was transferred into an […]

CYP1A2 = target: T1, CYP1A2 (Homo sapiens, UniProt P05177); assay: biochemical
T1 sequence (P05177 1-516): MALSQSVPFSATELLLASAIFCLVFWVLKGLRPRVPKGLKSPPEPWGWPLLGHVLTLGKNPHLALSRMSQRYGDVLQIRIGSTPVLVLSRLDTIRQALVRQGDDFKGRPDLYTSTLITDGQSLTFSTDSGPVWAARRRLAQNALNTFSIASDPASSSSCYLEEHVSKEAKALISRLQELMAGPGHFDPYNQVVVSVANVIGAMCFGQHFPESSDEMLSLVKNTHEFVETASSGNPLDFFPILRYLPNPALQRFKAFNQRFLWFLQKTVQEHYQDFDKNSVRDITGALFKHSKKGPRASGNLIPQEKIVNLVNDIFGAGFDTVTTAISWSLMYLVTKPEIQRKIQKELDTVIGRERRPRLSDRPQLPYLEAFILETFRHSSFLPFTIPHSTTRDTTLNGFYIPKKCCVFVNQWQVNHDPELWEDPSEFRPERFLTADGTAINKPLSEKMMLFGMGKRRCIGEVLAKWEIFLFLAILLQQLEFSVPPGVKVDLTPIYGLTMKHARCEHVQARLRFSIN

[9] = TA100, with S-9 mix, J2 40, NA49 200, benzo(a)pyrene 2 μg/plate
[10] = TA100, without S-9 mix, J2 40, NA49 200 μg/plate
[11] = TA98, with S-9 mix, J2 40, NA49 200, benzo(a)pyrene 2 μg/plate
[12] = TA98, without S-9 mix, J2 40, NA49 200, positive controls 1-2 μg/plate

Sequence of CYP450 2D6 (P10635 whole entry): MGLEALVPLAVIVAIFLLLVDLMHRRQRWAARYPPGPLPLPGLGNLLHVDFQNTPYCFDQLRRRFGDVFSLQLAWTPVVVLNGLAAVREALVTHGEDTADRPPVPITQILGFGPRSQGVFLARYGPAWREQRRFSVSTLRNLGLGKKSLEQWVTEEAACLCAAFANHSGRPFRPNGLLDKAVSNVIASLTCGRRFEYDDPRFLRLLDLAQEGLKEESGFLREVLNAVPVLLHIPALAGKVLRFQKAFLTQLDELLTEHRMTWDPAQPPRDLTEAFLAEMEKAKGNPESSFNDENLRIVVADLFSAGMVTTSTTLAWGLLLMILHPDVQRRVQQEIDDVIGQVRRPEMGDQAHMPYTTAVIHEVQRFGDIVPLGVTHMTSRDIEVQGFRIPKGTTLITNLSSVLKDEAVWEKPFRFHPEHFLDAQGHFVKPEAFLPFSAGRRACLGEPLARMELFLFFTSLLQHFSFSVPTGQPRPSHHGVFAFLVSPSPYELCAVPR
Sequence of CYP2C9 (P11712 whole entry): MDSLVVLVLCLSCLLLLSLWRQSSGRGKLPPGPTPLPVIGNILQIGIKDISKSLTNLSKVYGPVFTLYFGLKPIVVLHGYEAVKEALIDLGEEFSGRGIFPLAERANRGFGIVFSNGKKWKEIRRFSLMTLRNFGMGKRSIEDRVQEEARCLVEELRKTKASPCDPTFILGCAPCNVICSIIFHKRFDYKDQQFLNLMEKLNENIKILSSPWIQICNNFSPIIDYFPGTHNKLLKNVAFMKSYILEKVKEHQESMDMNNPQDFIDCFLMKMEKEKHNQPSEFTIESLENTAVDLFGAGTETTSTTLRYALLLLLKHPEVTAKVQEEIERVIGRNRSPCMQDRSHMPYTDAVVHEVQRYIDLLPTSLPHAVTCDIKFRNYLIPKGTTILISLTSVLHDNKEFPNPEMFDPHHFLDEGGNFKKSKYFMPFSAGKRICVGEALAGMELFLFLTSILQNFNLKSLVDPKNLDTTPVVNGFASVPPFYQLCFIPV

Compound | IC50 [1] | Factor (revertant colonies of treated plate/vehicle control plate) [2, 9] | Revertant colonies/plate (Mean ± S.D.) [2, 9] | Factor (revertant colonies of treated plate/vehicle control plate) [2, 10] | Revertant colonies/plate (Mean ± S.D.) [2, 10] | Ames test outcome versus vehicle control [2] | Factor (revertant colonies of treated plate/vehicle control plate) [3, 11] | Revertant colonies/plate (Mean ± S.D.) [3, 11] | Factor (revertant colonies of treated plate/vehicle control plate) [3, 12] | Revertant colonies/plate (Mean ± S.D.) [3, 12] | Ames test outcome versus vehicle control [3] | solubility kinetic [4] | logP [5] | Cell permeability, rating (PAMPA permeability assay) | Papp (PAMPA permeability assay) | Half-life predicted from in vitro plasma stability [6] | In vitro Human Plasma Stability at 37 °C (% of remaining after 1 h) ([6]; treated with 0.5 μg/mL) | In vitro Human Plasma Stability at 37 °C (% of remaining after 1 h) ([6]; treated with 5 μg/mL) | IC50 (CYP2C9) | IC50 (CYP450 2D6) | further results
Cc1cc(=O)c2c(O)cc(OCC3CS3)cc2o1 (centres unmarked) [J2] | > 100 µM | 3.1 | 418 ± 9 colonies/plate | 6.0 | 643 ± 70 colonies/plate | increased bacterial reverse mutation | 3.8 | 65 ± 2 colonies/plate | 3.6 | 57 ± 7 colonies/plate | increased bacterial reverse mutation | 73.2 µM and 19.5 µg/mL | 2.78 | low | 12.6 ×10⁻⁶ cm/s | about 3 h | 76.2% and 76.2 ± 0.72% | 82.7% and 82.7 ± 0.73% | > 50 µM | > 50 µM | HSP27 cross-linking activity (altered dimerization) [7]: Altered dimerization of HSP27; Stability of post-preparative sample [8]: 102.2–103.4%; Stability of standard stock solution [8]: 113.2%; Stability after three freeze–thaw cycles, mean ([8]; low concentration (0.05 µg/mL)): 116.6%; Stability at −70°C for 4 weeks, mean ([8]; low concentration (0.05 µg/mL)): 115.2%; IC50 (CYP1A2): 0.1 µM
COc1ccc(-c2coc3cc(OCC4CS4)ccc3c2=O)c(OC)c1 (centres unmarked) [NA49] | 90.4 µM | 1.9 | 262 ± 11 colonies/plate | 2.0 | 229 ± 2 colonies/plate | no significant increase | 1.3 | 22 ± 2 colonies/plate | 1.2 | 19 ± 3 colonies/plate | no significant increase | 90.2 µM and 33.4 µg/mL | 3.04 | moderate | 32.4 ×10⁻⁶ cm/s | > 6 h | 146.6% and 146.6 ± 0.01% | 101.4% and 101.4 ± 0.13% | 19.2 µM | > 50 µM | HSP27 cross-linking activity (altered dimerization) [7]: stronger cross-linking activity than J2; Stability of post-preparative sample [8]: 96.9–102.4%; Stability of standard stock solution [8]: 98.7%; IC50 (CYP1A2): > 50 µM
